According to patent US7052705B2, “Anti-angiogenic peptides” (Regeneron Pharmaceuticals, Inc., priority 2001, dated 2006):
Ends that are not written are not given here. Peptide text beside a SMILES is read from it.

Assays:
VEGFR-2/NP-1 = test system: T1, VEGFR-2/NP-1; format: binding, human
T1 construct: In the COS-1 cells overexpressing the full-length VEGFR-2; the NP-1 cDNA used for these experiments would only produce the full-length receptor; expressed in transfected cells; host or cells: COS-1
Method: (§1) When co-expressing VEGFR-2 and NP-1, 5 μg of VEGFR-2 cDNA and 2 μg of NP-1 cDNA are used. When the receptors are expressed in isolation, for VEGFR-2, 5 μg of VEGFR-2 cDNA and 2 μg of mock vector cDNA are used.
(§2) After generation of the liposome/DNA solution, the cells are rinsed one time with 5 ml Optimem I, then replaced with another 5 ml of Optimem I containing the liposome/DNA solution. The cells are incubated for two to four hours at 37° C., 5% CO2, then 5 ml of COS-1 cell growth medium is applied and the transfection is allowed to proceed overnight. The following day, cells are trypsinized (0.2% trypsin, 1 mM EDTA, Gibco-BRL), and cells containing common transfectants are pooled. […] The cells are then used for corresponding VEGFR-2/NP-1 complex formation and peptide blocking studies.
(§3) Cells are plated the day before experimentation at 200,000 cells per well in twelve well tissue culture plates (VWR) in 1 ml of growth medium specific for each cell type. On the day of experimentation, the cells were pre-equilibrated at 4° C. for 30 to 60 minutes in binding buffer (0.2% BSA, Sigma; 25 mM Hepes, Gibco; MEM, Gibco). […] The binding reaction is allowed to reach equilibrium for four hours at 4° C. with gentle agitation.
(§4) Unbound ligand is then removed by quickly washing three times with 5 ml ice cold BSA-free binding buffer (MEM, Gibco, 25 mM Hepes, Gibco). Cells are lysed by the addition of 250 μl of RIPS Buffer (previously described), and the lysed cells are transferred to 12×75 mm test tubes and counted using a gamma counter. Generation of competition curves and IC50 values are performed using the Prism software package (Graphpad Software Inc., San Diego, Calif.).

NP-1 = NP-1 (Homo sapiens, UniProt O14786); format: binding; set-up: the NP-1 cDNA used for these experiments would only produce the full-length receptor; expressed in transfected cells; host or cells: COS-1
NP-1, sequence (O14786 22-923): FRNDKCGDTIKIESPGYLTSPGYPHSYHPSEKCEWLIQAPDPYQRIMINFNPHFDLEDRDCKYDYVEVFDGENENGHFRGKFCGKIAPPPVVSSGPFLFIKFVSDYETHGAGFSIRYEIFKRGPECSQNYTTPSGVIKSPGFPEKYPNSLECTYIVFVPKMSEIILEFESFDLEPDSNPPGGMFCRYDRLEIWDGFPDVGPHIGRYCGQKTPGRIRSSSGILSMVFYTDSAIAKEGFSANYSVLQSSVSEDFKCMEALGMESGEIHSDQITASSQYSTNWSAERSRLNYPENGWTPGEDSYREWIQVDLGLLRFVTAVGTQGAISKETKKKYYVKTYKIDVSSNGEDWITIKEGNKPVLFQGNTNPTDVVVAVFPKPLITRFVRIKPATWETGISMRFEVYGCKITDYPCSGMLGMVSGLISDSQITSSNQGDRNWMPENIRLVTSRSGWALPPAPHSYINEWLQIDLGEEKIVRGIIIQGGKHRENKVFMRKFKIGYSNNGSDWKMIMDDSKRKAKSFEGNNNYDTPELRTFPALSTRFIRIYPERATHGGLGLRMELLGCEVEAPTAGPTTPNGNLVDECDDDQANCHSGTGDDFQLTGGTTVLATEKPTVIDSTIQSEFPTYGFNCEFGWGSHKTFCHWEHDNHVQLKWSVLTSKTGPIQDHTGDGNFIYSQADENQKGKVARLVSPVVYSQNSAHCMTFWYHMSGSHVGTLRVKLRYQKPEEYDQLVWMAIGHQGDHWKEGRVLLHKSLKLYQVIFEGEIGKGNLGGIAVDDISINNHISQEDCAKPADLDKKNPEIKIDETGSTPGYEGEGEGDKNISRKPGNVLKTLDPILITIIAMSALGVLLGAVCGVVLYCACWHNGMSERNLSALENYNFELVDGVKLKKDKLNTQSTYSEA
Method: as §1, §2, §3, §4

[1] = test system: VEGF165 vascular growth response; assay: Mouse corneal pocket model; format: in vivo; set-up: key to Score #1 (subjective neovascular response score) / Score #2 (subjective neovascular response score) / Score #3 (subjective neovascular response score): subjective neovascular growth score, 0 to 6 scale
Method: A 0.2 μl aliquot of this solution yielded a 4 μg dose. Human recombinant VEGF165 was purchased from R&D Systems (Minneapolis, Minn.), supplied in a lyophilized, carrier free form and reconstituted in the same water as the above peptide. A 0.2 μl aliquot of this solution yielded a 300 ng dose.
Male albino mice (Crl: CD-I (ICR) BR, VAF) from Charles River (Portage, N.C.), 20–24 grams were used. […] Compound adsorbed pellets were fabricated and implanted as described below. The treated eye was imaged on the day of implantation (day 0) and on days 4 and 7 following surgery. The growth response was subjectively graded on a scale from 0 to 6 by three independent graders blinded from the treatment grouping labels using the 3× printed image.
Polyvinyl alcohol (PVA) matrix material (Rippey, El Dorado Hills, Calif.) was cut into 1 cm×3 cm pieces and placed in a vibratome for sectioning on edge to produce 300 μm thick strips. The strips were individually sterilized by exposure to ethylene oxide. A strip was then cut under a dissecting microscope into approximately 300 μm cubes. The desired concentration of test compound or vehicle was adsorbed, sometimes utilizing a micro dessicant chamber. An HP auto sampler micro-syringe (Hamilton, P/N 7000.5) controlled the exact volume of the agent adsorbed onto the sponge. The sponge was then placed on a microscope slide prepared with a coating (20 μl spread over a 0.75 mm×1.5 mm area) of 12% hydron (Sigma, St. Louis, Mo.). The slide was protected in a clean petri dish and placed into a dessicator at 4° C. for a few hours or overnight. The dry, adsorbed sponges were mechanically flattened and overlaid with another aliquot of 12% hydron and again placed into a dessicator to cure the hydron coating. Fabrication of the adsorbed PVA sponge-hydron sandwich (referred to as a pellet) was done no more than 48 hours prior to implantation and the pellets were stored at 4° C. On the day of surgery and just prior to implantation, the pellet was trimmed so that the sponge remained encased by hydron (approximately 400 μm×400 μm×50 μm) and could be carefully removed from the slide.
Mice were anesthetized with 0.05 cc of Ketamine (140 mg/kg) and 0.03 cc Xylazine (17 mg/kg). A surgical plane of anesthesia was maintained by subsequent administration of half doses of the above compounds as needed. The whiskers on the animal's right side were trimmed down to ¼ of an inch. The right eye was bathed in an ophthalmic local anesthetic solution (Ophthaine, 0.5% tetracine hydrochloride) initially and throughout the procedure. The animal was placed on its side and the skin around the eye was gently retracted to expose the lateral and apical aspects of the cornea. The lateral limbic artery bifurcation was positioned horizontally. While stabilizing the eye against the ocular orbit, a vertical incision was made using a micro scalpel into the corneal tissue just lateral to the pupil. Care was taken to prevent accidental perforation of the anterior eye chamber. The incision depth was carefully deepened until a delicate and small lateral stab could be made (on axis with the lateral limbic artery bifurcation) with the micro scalpel into the middle of the corneal stroma. This lateral, intrastromal incision was enlarged by blunt dissection with very fine forceps until a pocket was formed from the vertical incision toward the limbus.
A hydron coated PVA sponge with adsorbed test compound (pellet) was prepared for implantation by carefully excising and removing it from the microscope slide. The pellet was introduced gently into the corneal pocket and advanced to within 1–2 mm of the limbus. The edges of the vertical corneal incision were approximated to encourage rapid healing. The imaging procedure (described below) was used to document the native limbic vascular architecture at the time of implantation. Post surgical recovery of the animal consisted of triple antibiotic ophthalmic ointment to prevent corneal drying, abrasion and infection. […]

| Molecule | Relative Affinity to Lead Peptide (RALP), VEGFR-2/NP-1 (VEGFR-2/NP-1) | Relative Affinity to Lead Peptide (RALP), NP-1 (NP-1) | other results |
| --- | --- | --- | --- |
| C[C@@H]1NC(=O)CNC(=O)[C@H](CCCNC(=N)N)NC(=O)CNC(=O)[C@H](CCCCN)NC(=O)[C@@H](N)CSSC[C@@H](C(=O)N[C@@H](CCCNC(=N)N)C(=O)N[C@@H](CCC(=O)O)C(=O)N[C@@H](CCCCN)C(=O)N[C@@H](CCC(N)=O)C(=O)N[C@@H](CCCNC(=N)N)C(=O)N2CCC[C@H]2C(=O)N[C@@H](CO)C(=O)N[C@@H](CC(=O)O)C(=O)N[C@@H](CCCCN)C(=O)N2CCC[C@H]2C(=O)N[C@@H](CCCNC(=N)N)C(=O)N[C@@H](CCCNC(=N)N)C(=O)O)NC(=O)[C@H](CCCNC(=N)N)NC1=O [P6V8-3NCS1-7CCA5] (HELM PEPTIDE1{C.K.G.R.G.A.R.C.R.E.K.Q.R.P.S.D.K.P.R.R}$PEPTIDE1,PEPTIDE1,1:R3-8:R3$$$V2.0) |  |  | Relative Affinity to Lead (RALP), VEGFR-2/NP-1 (VEGFR-2/NP-1): 1.87; Relative Affinity to Lead (RALP), NP-1 (NP-1): 1.64 |
| H-KGAGKARREKQRPSDKPRR-OH [P6V8-3NCSA3A6] | 8.20 | 48.8 |  |
| H-KGRGKRAAEKQAPSDKPRR-OH [P6V8-3NCSA7,8, 12] |  | 1.91 |  |
| H-KGRGKARREKQRPSDKPRR-OH [Peptide P6V8-3NCSA6] | 5.10 | 2.16 |  |
| H-RRPKGRGKRRREKQRPSDAAAR-OH [AS-5] | 0.71 | 1.6 |  |
| H-KGRGKRAAEAQAPSDAPAR-OH [P6V8-3NCSA7,8, 10, 12, 16, 18] | 27.540 | 72.44 |  |
| H-AGRGKARREKQRPSDKPRR-OH [P6V8-3NCSA1A6] | 0.93 | 2.30 |  |
| H-RRPAAAGKRRREKQRPSDKPRR-OH [AS-1, RRP AAA GKR RRE KQR PSD KPR R] | 1 | 8 |  |
| H-AGRGKRRREKQRPSDKPRR-OH [Peptide P6V8-3NCSA1] |  | 0.99 |  |
| H-AGRGARAAEAQRPSDKPRR-OH [P6V8-3NCSA1,5,7,8, 10] | 5.22 | 67.76 |  |
| C[C@@H]1NC(=O)[C@@H](N)CSSC[C@@H](C(=O)N[C@@H](CCCNC(=N)N)C(=O)N[C@@H](CCC(=O)O)C(=O)N[C@@H](CCCCN)C(=O)N[C@@H](CCC(N)=O)C(=O)N[C@@H](CCCNC(=N)N)C(=O)N2CCC[C@H]2C(=O)N[C@@H](CO)C(=O)N[C@@H](CC(=O)O)C(=O)N[C@@H](CCCCN)C(=O)N2CCC[C@H]2C(=O)N[C@@H](CCCNC(=N)N)C(=O)N[C@@H](CCCNC(=N)N)C(=O)O)NC(=O)[C@H](CCCNC(=N)N)NC(=O)[C@H](CCCCN)NC(=O)CNC(=O)[C@H](CCCNC(=N)N)NC(=O)CNC1=O [P6V8-3NCS1-7CCA1] (HELM PEPTIDE1{C.A.G.R.G.K.R.C.R.E.K.Q.R.P.S.D.K.P.R.R}$PEPTIDE1,PEPTIDE1,1:R3-8:R3$$$V2.0) |  |  | Relative Affinity to Lead (RALP), VEGFR-2/NP-1 (VEGFR-2/NP-1): 1.97; Relative Affinity to Lead (RALP), NP-1 (NP-1): 14.35 |
| H-AGRGARRREKQRPSDKPRR-OH [P6V8-3NCSA1A5] | 0.71 |  |  |
| H-KGRGARRREKQRPSDKPRR-OH [Peptide P6V8-3NCSA5] | 1.45 |  |  |
| C[C@@H]1NC(=O)CNC(=O)[C@H](CCCNC(=N)N)NC(=O)CNC(=O)[C@H](C)NC(=O)[C@@H](N)CSSC[C@@H](C(=O)N[C@@H](CCCNC(=N)N)C(=O)N[C@@H](CCC(=O)O)C(=O)N[C@@H](CCCCN)C(=O)N[C@@H](CCC(N)=O)C(=O)N[C@@H](CCCNC(=N)N)C(=O)N2CCC[C@H]2C(=O)N[C@@H](CO)C(=O)N[C@@H](CC(=O)O)C(=O)N[C@@H](CCCCN)C(=O)N2CCC[C@H]2C(=O)N[C@@H](CCCNC(=N)N)C(=O)N[C@@H](CCCNC(=N)N)C(=O)O)NC(=O)[C@H](CCCNC(=N)N)NC1=O [P6V8-3NCS1-7CCA1A5] (HELM PEPTIDE1{C.A.G.R.G.A.R.C.R.E.K.Q.R.P.S.D.K.P.R.R}$PEPTIDE1,PEPTIDE1,1:R3-8:R3$$$V2.0) |  |  | Relative Affinity to Lead (RALP), VEGFR-2/NP-1 (VEGFR-2/NP-1): 17.33; Relative Affinity to Lead (RALP), NP-1 (NP-1): 30.76 |
| RRPKGRGKRRREKQRPCDKPRR [Peptide P6V8, RRP KGR GKR RRE KQR P CDKPRR] |  |  | score of eye images by all graders ([1]; Day 7, P6V8 alone 4 μg, 0 = no change in limbic vasculature from Day 0): 0; vascular growth response to 300 ng of VEGF165 in the presence of peptide ([1]; P6V8 4 μg, mouse corneal micro pocket): attenuated; Score #1 (subjective neovascular response score) ([1]; grader 1, per animal, scale 0 to 6, pellet P6V8 4 μg and/or VEGF165 300 ng): 0; Score #2 (subjective neovascular response score) ([1]; grader 2, per animal, scale 0 to 6, pellet P6V8 4 μg and/or VEGF165 300 ng): 0; Score #3 (subjective neovascular response score) ([1]; grader 3, per animal, scale 0 to 6, pellet P6V8 4 μg and/or VEGF165 300 ng): 0 |
| H-KGAGKRRREKQRPSDKPRR-OH [Peptide P6V8-3NCSA3] | 0.23 | 8.8 |  |
| H-KGRGKRAAEAQRPSDKPRR-OH [P6V8-3NCSA7,8, 10] | 3.27 | 14.25 |  |
